# Results reported in ChEMBL document CHEMBL1201862, “PubChem BioAssay data set” (2004).
# Calls of active or inactive are those of the source.
# Key:
# [1] = target: T1, Protein skinhead-1 (Caenorhabditis elegans, UniProt P34707); type: functional
# T1 sequence (P34707 whole entry): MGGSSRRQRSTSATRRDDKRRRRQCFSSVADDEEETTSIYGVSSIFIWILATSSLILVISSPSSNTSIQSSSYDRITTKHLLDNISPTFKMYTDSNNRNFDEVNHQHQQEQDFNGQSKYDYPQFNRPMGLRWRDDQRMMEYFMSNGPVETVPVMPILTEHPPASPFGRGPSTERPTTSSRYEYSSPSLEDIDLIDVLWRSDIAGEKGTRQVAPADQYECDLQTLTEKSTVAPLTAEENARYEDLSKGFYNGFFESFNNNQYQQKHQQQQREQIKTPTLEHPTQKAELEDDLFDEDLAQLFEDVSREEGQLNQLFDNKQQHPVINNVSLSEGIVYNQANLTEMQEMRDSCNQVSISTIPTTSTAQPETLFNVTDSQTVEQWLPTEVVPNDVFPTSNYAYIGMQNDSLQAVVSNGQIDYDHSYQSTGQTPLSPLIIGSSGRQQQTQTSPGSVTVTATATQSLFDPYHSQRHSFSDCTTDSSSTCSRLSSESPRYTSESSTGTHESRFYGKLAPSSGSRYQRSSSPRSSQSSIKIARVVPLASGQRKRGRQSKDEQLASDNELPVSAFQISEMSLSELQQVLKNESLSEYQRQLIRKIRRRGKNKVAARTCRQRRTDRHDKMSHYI
# [2] = target: T2, Rac GTPase-activating protein 1 (Homo sapiens, UniProt Q9H0H5); test: MgcRacGAP GTPase-activating activity inhibitors, confirmation, biochemical, ADP Hunter fluorescence, primary and confirmatory (AID 624330); type: functional
# T2 sequence (Q9H0H5 whole entry): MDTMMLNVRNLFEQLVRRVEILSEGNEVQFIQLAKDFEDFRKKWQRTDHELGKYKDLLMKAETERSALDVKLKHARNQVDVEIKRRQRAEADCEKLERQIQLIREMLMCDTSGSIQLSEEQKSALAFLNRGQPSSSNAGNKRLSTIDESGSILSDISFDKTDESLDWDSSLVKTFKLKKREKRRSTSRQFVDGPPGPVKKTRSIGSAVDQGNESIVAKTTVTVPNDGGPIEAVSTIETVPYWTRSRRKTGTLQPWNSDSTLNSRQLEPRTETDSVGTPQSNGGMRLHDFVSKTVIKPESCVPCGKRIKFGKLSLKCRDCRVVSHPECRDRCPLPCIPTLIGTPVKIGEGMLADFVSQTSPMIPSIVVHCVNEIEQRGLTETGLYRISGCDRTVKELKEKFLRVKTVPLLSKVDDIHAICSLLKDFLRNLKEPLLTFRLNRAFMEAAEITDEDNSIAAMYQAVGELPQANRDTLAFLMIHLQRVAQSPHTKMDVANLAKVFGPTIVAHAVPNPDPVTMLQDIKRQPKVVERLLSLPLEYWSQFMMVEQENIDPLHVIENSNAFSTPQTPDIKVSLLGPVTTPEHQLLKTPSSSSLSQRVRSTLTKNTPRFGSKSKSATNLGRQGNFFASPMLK
# [3] = target: Cytochrome P450 2C19 (Homo sapiens, UniProt P33261); test: Cytochrome panel assay with activity outcomes. Panel member name: p450-cyp2c19 Compounds with AC50 equal or less than 10 uM are considered active; type: functional
# Cytochrome P450 2C19, sequence (P33261 whole entry): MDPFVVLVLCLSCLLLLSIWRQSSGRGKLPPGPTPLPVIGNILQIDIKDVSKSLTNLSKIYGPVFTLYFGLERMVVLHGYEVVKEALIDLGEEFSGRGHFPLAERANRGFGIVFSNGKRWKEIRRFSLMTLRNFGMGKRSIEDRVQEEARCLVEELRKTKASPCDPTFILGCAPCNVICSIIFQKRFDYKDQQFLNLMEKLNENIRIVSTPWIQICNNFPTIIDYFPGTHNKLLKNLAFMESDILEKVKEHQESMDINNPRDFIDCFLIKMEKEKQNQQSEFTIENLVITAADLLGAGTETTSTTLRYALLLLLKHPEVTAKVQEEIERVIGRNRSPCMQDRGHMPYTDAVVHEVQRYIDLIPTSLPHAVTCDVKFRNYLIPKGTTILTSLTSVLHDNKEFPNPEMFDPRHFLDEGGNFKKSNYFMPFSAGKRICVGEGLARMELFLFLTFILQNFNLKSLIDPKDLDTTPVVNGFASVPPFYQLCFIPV
# [4] = target: Cytochrome P450 3A4 (Homo sapiens, UniProt P08684);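 also: CYP3A4 tested as one member of a cytochrome P450 panel screen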
# Cytochrome P450 3A4, sequence (P08684 whole entry): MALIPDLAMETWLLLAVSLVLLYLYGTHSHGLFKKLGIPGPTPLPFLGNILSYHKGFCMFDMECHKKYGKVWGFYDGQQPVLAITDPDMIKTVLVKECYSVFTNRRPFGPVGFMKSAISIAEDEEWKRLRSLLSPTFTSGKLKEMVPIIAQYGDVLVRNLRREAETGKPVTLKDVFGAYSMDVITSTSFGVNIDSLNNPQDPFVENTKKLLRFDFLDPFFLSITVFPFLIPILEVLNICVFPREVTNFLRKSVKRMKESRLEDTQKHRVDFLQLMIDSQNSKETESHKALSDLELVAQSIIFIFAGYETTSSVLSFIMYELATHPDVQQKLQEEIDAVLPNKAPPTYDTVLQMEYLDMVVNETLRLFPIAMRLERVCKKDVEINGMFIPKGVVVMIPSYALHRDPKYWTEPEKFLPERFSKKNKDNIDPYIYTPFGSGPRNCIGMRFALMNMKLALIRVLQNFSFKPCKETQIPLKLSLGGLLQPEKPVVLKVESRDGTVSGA
# [5] = Luminescence Cell-Based Dose Retest to Confirm Inhibitors of Cancer Stem Cells. [Related pubchem assays (depositor defined):AID2717, AID2721]; type: functional; settings: Homo sapiens
# [6] = cytotoxicity toward NIH3T3 fibroblasts, dose response, counter-screen, cell-based, ATP luminescence, mouse fibroblasts (AID 2010); type: functional;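 also: cells exposed to compound for about 90 hours before reading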
# [7] = inhibitors of intracellular T. cruzi replication, confirmation, NIH3T3 host cells, beta-gal luminescence (AID 2044); type: functional, cell-based;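 also: intracellular parasites grown in NIH/3T3 mouse fibroblasts as host cells; luminescent beta-galactosidase reporter signal from transgenic T. cruzi replicating inside host cells; inhibitors lower the luminescence signal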
# [8] = target: T3, Protein RecA (Mycobacterium tuberculosis, UniProt P9WHJ3); test: Fluorescence Cell-Free Homogeneous Dose Retest to Identify Inhibitors of RecA-Intein Splicing Activity. [Related pubchem assays (depositor defined):AID2097, AID2223, AID489010, AID492950]; type: functional
# T3 sequence (P9WHJ3 whole entry): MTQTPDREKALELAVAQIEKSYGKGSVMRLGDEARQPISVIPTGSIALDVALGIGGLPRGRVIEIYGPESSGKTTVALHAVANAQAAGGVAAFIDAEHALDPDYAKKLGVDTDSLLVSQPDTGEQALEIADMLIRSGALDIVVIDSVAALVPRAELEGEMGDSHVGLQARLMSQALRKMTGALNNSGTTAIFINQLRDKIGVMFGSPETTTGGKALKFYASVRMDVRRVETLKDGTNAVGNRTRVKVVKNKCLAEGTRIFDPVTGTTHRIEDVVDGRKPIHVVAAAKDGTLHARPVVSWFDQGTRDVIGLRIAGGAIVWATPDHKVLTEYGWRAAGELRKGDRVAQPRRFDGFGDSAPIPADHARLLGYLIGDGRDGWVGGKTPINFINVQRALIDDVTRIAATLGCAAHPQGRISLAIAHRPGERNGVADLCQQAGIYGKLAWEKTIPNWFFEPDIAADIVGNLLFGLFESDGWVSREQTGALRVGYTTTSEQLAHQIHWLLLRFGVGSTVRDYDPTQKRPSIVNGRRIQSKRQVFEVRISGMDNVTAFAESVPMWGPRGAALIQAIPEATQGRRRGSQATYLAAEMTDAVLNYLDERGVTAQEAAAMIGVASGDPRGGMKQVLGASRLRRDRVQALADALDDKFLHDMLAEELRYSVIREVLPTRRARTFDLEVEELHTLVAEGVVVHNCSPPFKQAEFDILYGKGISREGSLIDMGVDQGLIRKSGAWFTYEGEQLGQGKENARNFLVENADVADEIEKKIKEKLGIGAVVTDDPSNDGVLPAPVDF
# [9] = test system: Streptococcus sp. 'group A'; test: growth inhibition of control SK(-) GAS strain, dose response, counter-screen for streptokinase expression inhibitor project, luminescence, kanamycin, BacTiterGlo, confirmation (AID 1900); type: functional, organism-based
# [10] = test system: Streptococcus; test: Group A Streptococcus viability loss, dose response, counter-screen for streptokinase expression inhibitor project, luminescence, BacTiterGlo (AID 1915); type: functional, organism-based;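 also: potency for reduction of bacterial viability or growth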
smiles,measurement,setting,value
COCCCn1c(=O)c2ccccc2n(Cc2cccc(C)c2)c1=O,IC50,[1],> 100 µM (inactive)
N#CC1=C(Nc2ccccc2Cl)SC(c2ccccc2O)NC1=O (stereo not given),IC50,[2],129 µM (active)
COCCCN=C(S)NC1CC2CCCC(C1)N2Cc1cccs1 (stereo not given),AC50,[3]; read-out: AC50,1.26 µM (inconclusive)
COc1ccccc1CN1CCCC2(CCN(C(=O)c3csnn3)CC2)C1,AC50,[4],15.8 µM (inconclusive)
Cc1sc(-n2c(C)cc(/C=C3\SC(=S)NC3=O)c2C)c(C#N)c1C,AC50,[5],2.5 µM (active)
C=CCN1C(=O)C(CC(=O)Nc2ccc(OCCC)cc2)N(CCCN2CCN(Cc3ccccc3)CC2)C1=S (stereo not given),EC50,[6],> 60 µM (not active)
same,EC50,[7],3.01 µM (active)
O=C(Nc1cc(-c2ccccc2)n[nH]1)c1ccccc1,IC50,[1],> 100 µM (inactive)
O=C(C1=C(O)C(=O)N(c2cccc(Cl)c2)C1c1ccccc1[N+](=O)[O-])c1ccccc1 (stereo not given),AC50,[4],12.6 µM (inconclusive)
O=C(NC1CONC1=O)OCC(Cl)(Cl)Cl (stereo not given),AC50,[5],> 195 µM (inactive)
COc1ccccc1N=C(S)NNC(=O)c1c(Cl)c(C)nn1C,AC50,[3],inconclusive
O=C(c1cc(-c2ccncc2)nc2ccc(Br)cc12)N1CCN(Cc2ccc3c(c2)OCO3)CC1,EC50,[6],54.9 µM (active)
same,EC50,[7],0.384 µM (active)
O=C(Nc1ccccc1)c1ccc(N2CCN(c3ccccc3)CC2)c(S(=O)(=O)N2CCOCC2)c1,EC50,[6],> 60 µM (not active)
same,EC50,[7],2.04 µM (active)
COc1cc(CNC(C)c2ccccc2)cc(Br)c1OCc1ccccc1 (stereo not given),AC50,[5],5.92 µM (active)
CCOc1ccc2c(c1)-c1c(ssc1=S)C(C)(C)N2,EC50,[8],3.17 µM (active)
COc1ccc(CNc2ncc(-c3ccccc3)n2C)c(OC)c1OC,IC50,[2],65.7 µM (active)
Cc1cnc(CNc2ccnc(-c3ccccc3C)n2)cn1,AC50,[4],20 µM (inconclusive)
COc1cc(N=Nc2ccc(C)cc2S(N)(=O)=O)c(C)cc1N,IC50,[2],76.2 µM (active)
Sc1nnc2sc3ccccc3n12,IC50,[2],35.8 µM (active)
COc1ccc(NC2CCCN(C(=O)CCc3scnc3C)C2)cc1 (stereo not given),IC50,[2],96.1 µM (active)
CSc1ccccc1C(=O)NCCOc1cccc(C)c1,IC50,[1],> 100 µM (inactive)
O=C(CN(Cc1ccccc1Cl)C(=O)c1ccc(CN2CCOCC2)o1)NCC1CCCO1 (stereo not given),AC50,[3]; read-out: AC50,10 µM (inconclusive)
CCn1cc(C(=O)O)c(=O)c2cc(F)c(N3CCN(S(=O)(=O)c4ccc(NC(C)=O)cc4)CC3)cc21,EC50,[9],5.05 µM (active)
same,EC50,[10],7.08 µM (active)
O=C(O)c1ccccc1C(=O)Nc1ccc(Nc2ccccc2)cc1,IC50,[2],55.5 µM (active)
Cc1ccc(/C=N/Nc2cc(C)nc(NCc3ccccc3)n2)cc1,AC50,[5],6.45 µM (active)
Oc1ccccc1/C=N/NP(=S)(c1ccccc1)c1ccccc1,AC50,[5],2.69 µM (active)
O/N=C/c1ccnc(SCc2ccc(Cl)cc2)n1,AC50,[5],3.58 µM (active)
